Laboratory results as given in ChEMBL document CHEMBL5518199, “Discovery of Effective Dual PROTAC Degraders for Neurodegenerative Disease-Associated Aggregates” (J Med Chem, 2024).

What was measured:
in vivo [1] = conditions: C57BL/6, mouse, brain, iv, 8 mg/kg
in vivo [2] = conditions: C57BL/6, mouse, plasma, iv, 8 mg/kg
in vivo [3] = conditions: C57BL/6, mouse, iv, 8 mg/kg
in vivo [4] = conditions: rat, iv, 8 mg/kg
in vitro [5] = conditions: C57BL/6, mouse, plasma
in vivo [6] = conditions: C57BL/6, mouse, iv, 8 mg/kg; remark: listed apart in the source
in vivo [7] = conditions: C57BL/6, mouse, plasma, iv, 8 mg/kg; remark: listed apart in the source
in vivo [8] = conditions: rat, iv, 8 mg/kg; remark: listed apart in the source
in vivo [9] = conditions: C57BL/6, mouse, plasma, iv, 8 mg/kg; remark: listed apart in the source
in vivo [10] = conditions: C57BL/6, mouse, brain, iv, 8 mg/kg; remark: listed apart in the source
in vitro [11] = conditions: C57BL/6, mouse, brain
in vivo [12] = conditions: C57BL/6, mouse, brain, iv, 8 mg/kg; remark: listed apart in the source
in vivo [13] = conditions: rat, iv, 8 mg/kg; remark: listed apart in the source
in vivo [14] = conditions: rat, iv, 8 mg/kg; remark: listed apart in the source
in vivo [15] = conditions: C57BL/6, mouse, iv, 8 mg/kg; remark: listed apart in the source
in vivo [16] = conditions: rat, iv, 8 mg/kg; remark: listed apart in the source
in vivo [17] = conditions: C57BL/6, mouse, iv, 8 mg/kg; remark: listed apart in the source
in vivo [18] = conditions: C57BL/6, mouse, brain, iv, 8 mg/kg; remark: listed apart in the source

concentration at 168.25 h (in vivo [1]): 2700 nM
concentration at 0.25 h (in vivo [2]): 67200 nM
Vd at 24 h (in vivo [3]): 0.48 L/kg
half-life at 24 h (in vivo [4]): 3.78 h
fraction unbound at 24 h (in vitro [5]): 0.442
clearance at 24 h (in vivo [6]): 1.68 mL/min/kg
half-life at 24 h (in vivo [7]): 3.24 h
Vd at 24 h (in vivo [8]): 0.92 L/kg
AUC at 24 h (in vivo [9]): 109 µM·h
concentration at 0.25 h (in vivo [10]): 1730 nM
fraction unbound at 24 h (in vitro [11]): 0.397
AUC at 24 h (in vivo [12]): 6.02 µM·h
AUC(0-inf) at 24 h (in vivo [13]): 65.5 µM·h
clearance at 24 h (in vivo [14]): 2 mL/min/kg
AUC(0-inf) at 24 h (in vivo [15]): 109 µM·h
AUC(0-t) at 24 h (in vivo [16]): 65.4 µM·h
AUC(0-t) at 24 h (in vivo [17]): 109 µM·h
half-life at 24 h (in vivo [18]): 4.21 h
Structure (SMILES): Cc1ccc2nc(-c3ccc(NCCOCCOCCOCCNC(=O)COc4cccc5c4C(=O)N(C4CCC(=O)NC4=O)C5=O)cc3)sc2c1 (stereo not drawn)
